Measured values: patent US10369187B2, “Peptide regulators of JNK family kinases” (Vanderbilt University, priority 2017, dated 2019)

Experiments:
[1] = system: ARR3-dependent activation of the JNK pathway; test: Suppression of ARR3-dependent JNK activation (peptide co-expressed with full-length ARR3, Western blot); format: cell-based; conditions: for JNK activity on co-expression with full-length ARR3, comparison of shorter peptides: Western blot
From the text: FIG. 9. The ARR3-derived T1A15 peptide is capable of reducing ARR3-dependent activation of the JNK pathway. (A) Dose-dependent action of Venus-T1A15 on the JNK activity. Upper blot panel—T1A15 was expressed at increasing concentration with full-length ARR3. Cells expressing GFP (negative control) and full-length ARR3 only (positive control) are shown for comparison. Note the reduced activity of HA-JNK3α2 expressed in the cells as well as that of endogenous INK isoforms (p54 and p46 bands). The lower panels show corresponding expression of GFP, full-length ARR3 and increasing concentrations of Venus-T1A15. (B) Comparison of the activity of shorter ARR3-derived peptides. Three shorter peptides, T1A15, T1A14, and T1A13, were co-expressed with full-length ARR3, and the INK activity assessed by western blot.
First, the action of arrestin-3-derived peptides expressed in cultured cells on JNK3 activity was investigated.

WT hemiparkinsonian mice = test: L-DOPA-induced rotations in hemiparkinsonian WT mice; format: in vivo, mouse; conditions: peptide expressed under CMV promoter in striatal neurons, versus GFP
From the text: FIG. 11. Inhibition of L-DOPA-induced rotations in WT mice by ARR3-derived peptide T1A15 inhibiting JNK3. The arrestin-3-derived peptide T1A15 expressed under CMV promoter in striatal neurons inhibited rotations in WT mice as compared to WT mice expressing GFP.
(§1) The mice were rendered hemiparkinsonian by the unilateral injection of the dopaminergic neurotoxin 6-hydroxydopamine. Such animals develop contralateral rotations of increasing frequency in response to repeated administration of L-DOPA. ARR3 knockout mice (KO) have lower propensity than wild type (WT) animals to such rotations.

[2] = system: ASK1-MKK4/7-JNK3 signaling cascade; test: In cell JNK3 activation assay (co-expression with HA-ASK1 and HA-JNK3α2, phospho-JNK Western blot); format: cell-based, African green monkey; conditions: for in cell JNK3α2 activation (phospho-JNK3 densitometry): Example 2, YFP/Venus constructs with HA-ASK1, HA-JNK3α2 in COS7 cells; for JNK3 phosphorylation in cells, HA-tagged arrestins and separated domains: co-expressed with ASK1 and JNK3 in COS7 cells
Description: COS-7 African green monkey cells were maintained in DMEM supplemented with 10% heat-inactivated FBS (Invitrogen), penicillin, and streptomycin at 37° C. in a humidified incubator with 5% CO2. The cells were plated at 80-90% confluence and transfected using Lipofectamine 2000 (Invitrogen) according to the manufacturer's instructions. Cells were used 48 h post-transfection and serum-starved overnight before experiments.
COS-7 cells were incubated with phosphatase inhibitors (50 mM NaF and 10 mM Na3VO4) in serum-free medium for 15 min at 37° C.; washed with cold PBS; and lysed with SDS lysis buffer containing 1% SDS, 10 mM Tris (pH7.4), 10 mM NaF, 100 μM Na3VO4, 2 mM EDTA, 2 mM benzamidine and 1 mM PMSF. JNKs activity was assayed by Western blotting using an antibody specific for phosphorylated JNK to detect phosphorylated (active) JNKs^17,20,23. Whole cell lysates were boiled for 5 min and centrifuged at 10,000×g for 10 min, and the supernatants were used for Western blotting. Protein was measured using the Bio-Rad Coomassie Blue assay. The proteins were resolved on 8% SD S-PAGE and transferred to PVDF membrane (Millipore, Bedford, Mass.). Blots were incubated with the primary antibodies (Cell Signaling Technology, Inc) anti-phospho-JNK, anti-JNK, anti-HA (6E2) (1:1000 to 1:5000), followed by appropriate HRP-conjugated secondary antibodies. Protein bands were detected by enhanced chemiluminescence (ECL, Pierce), followed by exposure to x-ray film. To quantify phospho-JNKs, serial dilutions of anisomycin (1 μg/ml)-stimulated HEK-A cell lysates were used to ensure that all samples were in linear range. The values for these proteins are expressed in arbitrary units.
The JNK3 activation was next tested in cells (See FIG. 7). COS7 cells were transfected with HA-ASK1, HA-JNK3α2, and YFP-arrestin constructs to measure in cell JNK3α2 activation. Phospho-JNK3 is shown as the uppermost band in the Western analysis, and was analyzed by densitometric quantification using Quantity One software (quantification in bottom panel). […] The data were statistically analyzed by ANOVA with protein as the main factor. Significance of the difference from control (p values) is indicated.
In Cell JNK3 Activation Assay COS7 African green monkey cells were sustained in DMEM solution containing 10% heat-inactivated FBS (Invitrogen), penicillin, and streptomycin at 37° C. and 5% CO2. Cells were transfected at 90-100% confluency in 6-well plates with pcDNA3-HA-ASK1 (0.4 ug), pcDNA3-HA-JNK3α2 (0.2 ug), and pcDNA3-Venus arrestin constructs (0.2-0.6 ug) at a 1:2 ratio of DNA:Lipofectamine 2000 (Invitrogen). At 48 hrs post-transfection, the cells were incubated with phosphatase inhibitors (20 mM NaF and 1 mM Na3VO4) in PBS for 15 mins, washed twice with cold PBS, and lysed using 50 mM Tris (pH 7.8), 2 mM EDTA, 250 mM NaCl, 10% Glycerol, 0.5% NP-40, 2 mM benzamide, and 1 mM PMSF. Protein concentration was measured using the Bio-Rad Quick Start™ Bovine Serum Albumin (BSA) Standard Set. The proteins were subjected to 10% SDS-PAGE and transferred to PVDF membrane (Millipore, Bedford, Mass.). Membranes were incubated with respective primary antibodies (Cell Signaling Technology, Inc.) anti-ASK1 (#3762S), anti-phospho-JNK (#9251), anti-SAPK/JNK (#9252P), anti-GST (#2625), or anti-HA (#3724), followed by the appropriate HRP-conjugated secondary antibodies. Bands were detected by x-ray film using enhanced chemiluminescence (ECL, Pierce) and quantification was done using the software Quantity One (BioRad).

[3] = system: hemiparkinsonian ARR3 KO mice; test: L-DOPA-induced rotations in hemiparkinsonian ARR3 KO mice; format: in vivo, mouse
Description: FIG. 10. Rescue of L-DOPA-induced rotations in ARR3 KO mice by T1A16. Data are shown as means±S.E.M. Mice were pre-tested for L-DOPA-induced rotations before receiving lentiviruses. Respective lentiviruses were injected into the dorsolateral striatum of ARR3 KO mice. WT mice received GFP. […] In contrast, selective expression of T1A16 in striatopallidal MSNs under control of the enkephaline (ENK) promoter was ineffective. […] Significance levels are by Bonferroni post hoc test across all testing sessions.
Next, arrestin-3-derived peptides T1A16 and T1A15 were investigated for activity in the animal model of L-DOPA-induced dyskinesia. It was shown that the peptides expressed as Venus fusions in the motor striatum of hemiparkinsonian mice via lentivirus-mediated gene transfer modulate the manifestations of L-DOPA-induced dyskinesia (LID). The mice lacking ARR3 have reduced LID, and restoration of ARR3 into the motor striatum via lentivirus-mediated gene transfer rescues LID in these animals.
as §1

MKK4 = target: T1, MKK4 (Homo sapiens, UniProt P45985); test: MBP pull-down of purified MKK4; format: binding; conditions: MBP pull-down, purified proteins
T1 sequence (P45985 1-399): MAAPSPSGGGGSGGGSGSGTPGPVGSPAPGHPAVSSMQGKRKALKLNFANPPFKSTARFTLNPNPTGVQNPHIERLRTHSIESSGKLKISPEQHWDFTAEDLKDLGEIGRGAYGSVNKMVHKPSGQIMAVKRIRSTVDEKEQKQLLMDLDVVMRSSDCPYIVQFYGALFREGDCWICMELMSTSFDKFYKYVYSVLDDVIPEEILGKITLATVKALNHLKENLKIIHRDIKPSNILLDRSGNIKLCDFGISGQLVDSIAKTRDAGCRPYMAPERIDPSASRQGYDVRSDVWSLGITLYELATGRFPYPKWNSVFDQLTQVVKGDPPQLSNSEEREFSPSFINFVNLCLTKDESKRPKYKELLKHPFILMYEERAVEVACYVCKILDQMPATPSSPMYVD
Description: T1A was expressed in E. coli as an MBP-fusion and purified it on an amylose column^23. The ability of purified GST-MKK4 or GST-MKK7 (FIG. 1A) to bind MBP-T1A immobilized on an amylose column was tested in an in vitro pull-down assay, where MBP and MBP-arrestin-3 served as negative and positive controls, respectively (FIG. 1B). MBP-T1A, but not control MBP, effectively retained both kinases (FIG. 1B). […] Next, it was tested whether T1A binds the uppermost kinase in the cascade, ASK1. Because ASK1 is not available in purified form, HA-tagged ASK1 and YFP-tagged T1A (using YFP as a control) were co-expressed in COS7 cells, lysed the cells, and immunoprecipitated YFP constructs with anti-GFP antibody (FIG. 1C).
To make MBP-fusions containing arrestin-2/3 elements, the cDNAs encoding arrestin fragments were subcloned into pMal-p2T (generous gift from Dr. Keiji Tanaka, Tokyo Institute of Medical Science) between Eco RI and Xho I sites in frame with MBP, as described^23. MBP-Arr3 (full-length arrestin-3) was created by subcloning the corresponding cDNA into pMal-p2T between Eco RI and Not I sites^23. All MBP-arrestin-3 fusion proteins contained the same […] (SEQ ID NO:29) linker between MBP and arrestin-3 or its fragments. The MBP protein used as negative control was purified using empty pMal-p2T vector containing the same linker with 10 additional residues: […] (SEQ ID NO:30). MBP fusions were purified, as described^23. MBP pull-down was performed, as described^23. Briefly, Indicated MBP fusions (10-30 μg in 50 μL 20 mM Tris/150 mM NaCl) were immobilized on amylose resin (25 μL, 50% slurry, New England Biolabs) for 1 h at 4° C. with slight rotation. Purified, as described^40, MKK4/7 (10 μg in 50 μL 20 mM Tris/150 mM NaCl) were added to the immobilized MBP fusions and rotated gently for 2 h at 4° C. Samples were transferred to centrifuge filters (Durapore®-PVDF-0.65 μm), washed three times with 50 mM HEPES-Na, pH 7.3, 150 mM NaCl. The proteins were eluted by 100 μl of elution buffer (wash buffer containing 50 mM maltose) by gentle rotation for 5 min at 4° C. Eluates were analyzed by SDS-PAGE and Western blotting.

MKK7-JNK3 module = MKK7-JNK3 module (Homo sapiens, UniProt O14733+P53779); conditions: previously found, reference 20; cited from earlier work
MKK7-JNK3 module, sequence (O14733 whole entry): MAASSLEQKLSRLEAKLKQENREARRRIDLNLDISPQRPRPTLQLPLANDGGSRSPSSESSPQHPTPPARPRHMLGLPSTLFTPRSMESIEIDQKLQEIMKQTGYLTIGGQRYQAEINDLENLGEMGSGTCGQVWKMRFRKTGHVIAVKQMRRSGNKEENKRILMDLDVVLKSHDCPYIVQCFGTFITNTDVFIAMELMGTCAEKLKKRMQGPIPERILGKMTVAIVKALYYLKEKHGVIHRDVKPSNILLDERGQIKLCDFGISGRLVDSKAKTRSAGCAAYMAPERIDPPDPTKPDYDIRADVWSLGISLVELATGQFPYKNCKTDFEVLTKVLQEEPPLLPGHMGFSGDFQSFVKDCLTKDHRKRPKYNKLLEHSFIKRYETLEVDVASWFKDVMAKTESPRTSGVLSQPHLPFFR
MKK7-JNK3 module, sequence (P53779 whole entry): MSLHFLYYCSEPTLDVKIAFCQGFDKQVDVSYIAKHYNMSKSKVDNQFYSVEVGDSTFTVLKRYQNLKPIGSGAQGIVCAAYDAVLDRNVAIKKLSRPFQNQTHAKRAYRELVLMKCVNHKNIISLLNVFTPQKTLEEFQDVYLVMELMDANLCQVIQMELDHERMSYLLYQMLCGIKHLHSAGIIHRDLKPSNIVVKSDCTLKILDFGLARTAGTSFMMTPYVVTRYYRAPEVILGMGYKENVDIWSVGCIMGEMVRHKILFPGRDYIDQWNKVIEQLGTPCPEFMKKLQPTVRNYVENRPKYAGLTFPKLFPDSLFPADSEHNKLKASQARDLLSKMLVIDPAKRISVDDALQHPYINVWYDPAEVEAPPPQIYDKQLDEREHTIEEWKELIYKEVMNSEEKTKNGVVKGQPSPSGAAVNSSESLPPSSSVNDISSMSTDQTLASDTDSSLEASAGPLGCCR

MKK4-JNK3 module = MKK4-JNK3 module (Homo sapiens, UniProt P45985+P53779); conditions: previously found, reference 20; cited from earlier work
MKK4-JNK3 module, sequence (P53779 whole entry, one chain of several): as the sequence (P53779 whole entry) above

KKSSPNCKLTVYLG (bovine) [T1A14]
JNK activity on co-expression with full-length ARR3, comparison of shorter peptides [1]: marginally effective

TRVFKKSSPNCKLTV (bovine) [T1A15]
ARR3-dependent JNK activation at increasing peptide expression ([1]; Venus-T1A15 co-expressed with full-length ARR3): reducing arrestin-3-dependent activation of JNK3 as well as other JNK isoforms in a dose dependent manner
JNK activity on co-expression with full-length ARR3, comparison of shorter peptides [1]: effectively suppressed
L-DOPA-induced rotations in WT mice (WT hemiparkinsonian mice): able to suppress the rotational behavior
in cell JNK3α2 activation (phospho-JNK3 densitometry) [2]: inhibit JNK3 activation

VFKKSSPNCKLTVYLG (bovine) [T1A16]
L-DOPA-induced rotations in ARR3 KO mice, expression in striatonigral MSNs ([3]; lentivirus, dynorphine (DYN) promoter): fully rescued rotations in A3KO mice
L-DOPA-induced rotations in ARR3 KO mice, expression in striatopallidal MSNs ([3]; lentivirus, enkephaline (ENK) promoter): ineffective
L-DOPA-induced rotations in ARR3 KO mice ([3]; peptide expressed in striatum via lentivirus, 6-hydroxydopamine lesion): fully restores rotations in ARR3 KO mice to the level of that in WT mice
in cell JNK3α2 activation (phospho-JNK3 densitometry) [2]: facilitates JNK3 activation
JNK3 activation at increasing peptide expression ([2]; Example 3, T1A16-Venus expressed in Cos7 cells): dose-dependently activates JNK3

arrestin-3: full-length arrestin-3 (bovine) protein, scaffold of ASK1-MKK4/7-JNK3 cascade
JNK activity on co-expression with full-length ARR3, comparison of shorter peptides [1]: induced the JNK activation
interaction with MKK4 compared with MKK7 (MKK4): stronger interaction with MKK4 than with MKK7
in cell JNK3α2 activation (phospho-JNK3 densitometry) [2]: facilitates JNK3 activation
JNK3 phosphorylation in cells, YFP fusions ([2]; YFP fusions co-expressed with JNK3 and ASK1 in COS7 cells): increased the level of JNK3 phosphorylation
JNK3 phosphorylation in cells, HA-tagged arrestins and separated domains [2]: significantly increases JNK3 phosphorylation in cells
optimal concentration for scaffolding MKK7-JNK3 module (MKK7-JNK3 module): ~6 µM
optimal concentration for scaffolding MKK4-JNK3 module (MKK4-JNK3 module): ~0.6 µM

VFKKSSPNCKLTV (bovine) [T1A13]
JNK activity on co-expression with full-length ARR3, comparison of shorter peptides [1]: no effect

B1: arrestin-2: full-length non-visual arrestin-2 protein, does not promote JNK3 activation (protein, UniProt P17870 1-418, looked up)
chain: MGDKGTRVFKKASPNGKLTVYLGKRDFVDHIDLVEPVDGVVLVDPEYLKERRVYVTLTCAFRYGREDLDVLGLTFRKDLFVANVQSFPPAPEDKKPLTRLQERLIKKLGEHAYPFTFEIPPNLPCSVTLQPGPEDTGKACGVDYEVKAFCAENLEEKIHKRNSVRLVIRKVQYAPERPGPQPTAETTRQFLMSDKPLHLEASLDKEIYYHGEPISVNVHVTNNTNKTVKKIKISVRQYADICLFNTAQYKCPVAMEEADDTVAPSSTFCKVYTLTPFLANNREKRGLALDGKLKHEDTNLASSTLLREGANREILGIIVSYKVKVKLVVSRGGLLGDLASSDVAVELPFTLMHPKPKEEPPHREVPEHETPVDTNLIELDTNDDDIVFEDFARQRLKGMKDDKEEEEDGTGSPRLNDR
modifications: full-length
JNK3 phosphorylation in cells, HA-tagged arrestins and separated domains [2]: does not
